Results as given in ChEMBL document CHEMBL1133334, “Synthesis and pharmacology of new enantiopure delta(3)-4-arylkainoids” (Bioorg Med Chem Lett, 2000).

Target: Glutamate NMDA receptor
Experiment: Compound was tested for agonistic activity at the N-methyl-D-aspartate glutamate receptor obtained from the rat cortical wedge preparation
Type: functional
Settings: read-out: KD app

Work on `O=C(O)CC1=C(c2ccsc2)CN[C@@H]1C(=O)O` yielded a Kd of 45 µM.
With `O=C(O)CC1=C(c2ccco2)CN[C@@H]1C(=O)O` the Kd was 70 µM.
Compound `O=C(O)CC1=C(c2ccoc2)CN[C@@H]1C(=O)O` has a Kd of 85 µM.
For `COc1ccccc1C1=C(CC(=O)O)[C@@H](C(=O)O)NC1`, the Kd was 380 µM.
`O=C(O)CC1=C(c2ccccc2)CN[C@@H]1C(=O)O` showed a Kd of 560 µM.
For `O=C(O)CC1=C(c2cccs2)CN[C@@H]1C(=O)O`, the Kd was 20 µM.
`O=C(O)CC1=C(c2ccc3ccccc3c2)CN[C@@H]1C(=O)O` gave a Kd of 250 µM.
